Laboratory results as given in US20160009693A1, “HERBICIDAL COMPOUNDS” (SYNGENTA LIMITED, priority 2013, published 2016).

test system: Amaranthus retoflexus (AMARE); assay: Herbicidal glasshouse test, pre-emergence, AMARE; assay type: in vivo; conditions: applied at 1000 g/h, evaluated after 13 days
How it was run: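 Amaranthus retoflexus seeds were sown in pots of standard soil and kept one day in a glasshouse at 24/16° C. (day/night), 14 hours light and 65% humidity. They were then sprayed pre-emergence with the active ingredient in acetone/water (50:50) containing 0.5% Tween 20. Plants grew under the same conditions, watered twice daily, and percentage damage was scored after 13 days.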

Row | Structure (SMILES) | PRE Application AMARE, percentage damage (five point scale)
1 | Cn1nnnc1NC(=O)c1nn(C)c(=O)n(-c2ccc(OC(F)(F)F)cc2)c1=O [Compound 1.039] | 5 (5=80-100%)
2 | Cn1nnnc1NC(=O)c1nn(C)c(=O)n(-c2ccc(C(C)(C)C)cc2)c1=O [Compound 1.040] | 5 (5=80-100%)
3 | Cn1nnnc1NC(=O)c1nn(C)c(=O)n(-c2ccc(Cl)c(Cl)c2)c1=O [Compound 1.041] | 5 (5=80-100%)

test system: Ipomoea hederacea (IPOHE); assay: Herbicidal glasshouse test, post-emergence, IPOHE; assay type: in vivo; conditions: applied at 1000 g/h, evaluated after 13 days

Row | Structure (SMILES) | POST Application IPOHE, percentage damage (five point scale)
4 | Cn1nnnc1NC(=O)c1nn(C)c(=O)n(-c2ccc(OC(F)(F)F)cc2)c1=O [Compound 1.039] | 5 (5=80-100%)
5 | Cn1nnnc1NC(=O)c1nn(C)c(=O)n(-c2ccc(C(C)(C)C)cc2)c1=O [Compound 1.040] | 4 (4=60-79%)
6 | Cn1nnnc1NC(=O)c1nn(C)c(=O)n(-c2ccc(Cl)c(Cl)c2)c1=O [Compound 1.041] | 5 (5=80-100%)

test system: Alopecurus myosuroides (ALOMY); assay: Herbicidal glasshouse test, pre-emergence, ALOMY; assay type: in vivo; conditions: applied at 1000 g/h, evaluated after 13 days

Row | Structure (SMILES) | PRE Application ALOMY, percentage damage (five point scale)
7 | Cn1nnnc1NC(=O)c1nn(C)c(=O)n(-c2ccc(OC(F)(F)F)cc2)c1=O [Compound 1.039] | 5 (5=80-100%)
8 | Cn1nnnc1NC(=O)c1nn(C)c(=O)n(-c2ccc(C(C)(C)C)cc2)c1=O [Compound 1.040] | 5 (5=80-100%)
9 | Cn1nnnc1NC(=O)c1nn(C)c(=O)n(-c2ccc(Cl)c(Cl)c2)c1=O [Compound 1.041] | 5 (5=80-100%)

test system: Setaria faberi (SETFA); assay: Herbicidal glasshouse test, pre-emergence, SETFA; assay type: in vivo; conditions: applied at 1000 g/h, evaluated after 13 days

Row | Structure (SMILES) | PRE Application SETFA, percentage damage (five point scale)
10 | Cn1nnnc1NC(=O)c1nn(C)c(=O)n(-c2ccc(OC(F)(F)F)cc2)c1=O [Compound 1.039] | 5 (5=80-100%)
11 | Cn1nnnc1NC(=O)c1nn(C)c(=O)n(-c2ccc(C(C)(C)C)cc2)c1=O [Compound 1.040] | 5 (5=80-100%)
12 | Cn1nnnc1NC(=O)c1nn(C)c(=O)n(-c2ccc(Cl)c(Cl)c2)c1=O [Compound 1.041] | 4 (4=60-79%)

test system: Solanum nigrum (SOLNI); assay: Herbicidal glasshouse test, post-emergence, SOLNI; assay type: in vivo; conditions: applied at 1000 g/h, evaluated after 13 days

Row | Structure (SMILES) | POST Application SOLNI, percentage damage (five point scale)
13 | Cn1nnnc1NC(=O)c1nn(C)c(=O)n(-c2ccc(OC(F)(F)F)cc2)c1=O [Compound 1.039] | 5 (5=80-100%)
14 | Cn1nnnc1NC(=O)c1nn(C)c(=O)n(-c2ccc(C(C)(C)C)cc2)c1=O [Compound 1.040] | 5 (5=80-100%)
15 | Cn1nnnc1NC(=O)c1nn(C)c(=O)n(-c2ccc(Cl)c(Cl)c2)c1=O [Compound 1.041] | 5 (5=80-100%)

test system: Alopecurus myosuroides (ALOMY); assay: Herbicidal glasshouse test, post-emergence, ALOMY; assay type: in vivo; conditions: applied at 1000 g/h, evaluated after 13 days

Row | Structure (SMILES) | POST Application ALOMY, percentage damage (five point scale)
16 | Cn1nnnc1NC(=O)c1nn(C)c(=O)n(-c2ccc(OC(F)(F)F)cc2)c1=O [Compound 1.039] | 5 (5=80-100%)
17 | Cn1nnnc1NC(=O)c1nn(C)c(=O)n(-c2ccc(C(C)(C)C)cc2)c1=O [Compound 1.040] | 4 (4=60-79%)
18 | Cn1nnnc1NC(=O)c1nn(C)c(=O)n(-c2ccc(Cl)c(Cl)c2)c1=O [Compound 1.041] | 5 (5=80-100%)

test system: Solanum nigrum (SOLNI); assay: Herbicidal glasshouse test, pre-emergence, SOLNI; assay type: in vivo; conditions: applied at 1000 g/h, evaluated after 13 days
How it was run: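 Seeds of Solanum nigrum were sown in pots of standard soil and kept one day in a glasshouse at 24/16° C. day/night, 14 hours light and 65% humidity. For the pre-emergence treatment they were then sprayed with an aqueous solution of the active ingredient formulated in acetone/water (50:50) containing 0.5% Tween 20. Plant damage was rated after 13 days.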

Row | Structure (SMILES) | PRE Application SOLNI, percentage damage (five point scale)
19 | Cn1nnnc1NC(=O)c1nn(C)c(=O)n(-c2ccc(OC(F)(F)F)cc2)c1=O [Compound 1.039] | 5 (5=80-100%)
20 | Cn1nnnc1NC(=O)c1nn(C)c(=O)n(-c2ccc(C(C)(C)C)cc2)c1=O [Compound 1.040] | 5 (5=80-100%)
21 | Cn1nnnc1NC(=O)c1nn(C)c(=O)n(-c2ccc(Cl)c(Cl)c2)c1=O [Compound 1.041] | 5 (5=80-100%)

test system: Echinochloa crus-galli (ECHCG); assay: Herbicidal glasshouse test, post-emergence, ECHCG; assay type: in vivo; conditions: applied at 1000 g/h, evaluated after 13 days
How it was run: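 Echinochloa crus-galli (ECHCG) seeds were sown in standard soil in pots and grown for 8 days in a glasshouse at 24/16° C. day/night, 14 hours light and 65% humidity. The young plants were then sprayed post-emergence with the active ingredient in acetone / water (50:50) containing 0.5% Tween 20. Damage was scored after 13 days.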

Row | Structure (SMILES) | POST Application ECHCG, percentage damage (five point scale)
22 | Cn1nnnc1NC(=O)c1nn(C)c(=O)n(-c2ccc(OC(F)(F)F)cc2)c1=O [Compound 1.039] | 5 (5=80-100%)
23 | Cn1nnnc1NC(=O)c1nn(C)c(=O)n(-c2ccc(C(C)(C)C)cc2)c1=O [Compound 1.040] | 5 (5=80-100%)
24 | Cn1nnnc1NC(=O)c1nn(C)c(=O)n(-c2ccc(Cl)c(Cl)c2)c1=O [Compound 1.041] | 5 (5=80-100%)

test system: Echinochloa crus-galli (ECHCG); assay: Herbicidal glasshouse test, pre-emergence, ECHCG; assay type: in vivo; conditions: applied at 1000 g/h, evaluated after 13 days
How it was run: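 Echinochloa crus-galli seeds were sown in standard soil in pots and grown for one day in a glasshouse at 24/16° C. day/night, 14 hours light and 65% humidity. Pre-emergence spraying used an aqueous solution of the active ingredient in acetone/water (50:50) with 0.5% Tween 20. Damage was scored after 13 days on a five point scale.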

Row | Structure (SMILES) | PRE Application ECHCG, percentage damage (five point scale)
25 | Cn1nnnc1NC(=O)c1nn(C)c(=O)n(-c2ccc(OC(F)(F)F)cc2)c1=O [Compound 1.039] | 5 (5=80-100%)
26 | Cn1nnnc1NC(=O)c1nn(C)c(=O)n(-c2ccc(C(C)(C)C)cc2)c1=O [Compound 1.040] | 5 (5=80-100%)
27 | Cn1nnnc1NC(=O)c1nn(C)c(=O)n(-c2ccc(Cl)c(Cl)c2)c1=O [Compound 1.041] | 5 (5=80-100%)

test system: Amaranthus retoflexus (AMARE); assay: Herbicidal glasshouse test, post-emergence, AMARE; assay type: in vivo; conditions: applied at 1000 g/h, evaluated after 13 days
How it was run: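 Amaranthus retoflexus (AMARE) seeds were sown in pots of standard soil and grown in a glasshouse at 24/16° C. day/night, 14 hours light and 65% humidity for 8 days. The plants were then sprayed post-emergence with an aqueous solution of the active ingredient in acetone/water (50:50) with 0.5% Tween 20. Damage was scored after 13 days.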

Row | Structure (SMILES) | POST Application AMARE, percentage damage (five point scale)
28 | Cn1nnnc1NC(=O)c1nn(C)c(=O)n(-c2ccc(OC(F)(F)F)cc2)c1=O [Compound 1.039] | 5 (5=80-100%)
29 | Cn1nnnc1NC(=O)c1nn(C)c(=O)n(-c2ccc(C(C)(C)C)cc2)c1=O [Compound 1.040] | 5 (5=80-100%)
30 | Cn1nnnc1NC(=O)c1nn(C)c(=O)n(-c2ccc(Cl)c(Cl)c2)c1=O [Compound 1.041] | 5 (5=80-100%)

test system: Setaria faberi (SETFA); assay: Herbicidal glasshouse test, post-emergence, SETFA; assay type: in vivo; conditions: applied at 1000 g/h, evaluated after 13 days
How it was run: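 Setaria faberi seeds were sown in standard soil in pots and grown for 8 days in a glasshouse at 24/16° C. day/night, 14 hours light and 65% humidity. The seedlings were then sprayed post-emergence with the active ingredient in acetone/water (50:50) containing 0.5% Tween 20. Afterwards they were kept under the same conditions, watered twice daily, and scored for percentage damage on a five point scale.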

Row | Structure (SMILES) | POST Application SETFA, percentage damage (five point scale)
31 | Cn1nnnc1NC(=O)c1nn(C)c(=O)n(-c2ccc(OC(F)(F)F)cc2)c1=O [Compound 1.039] | 5 (5=80-100%)
32 | Cn1nnnc1NC(=O)c1nn(C)c(=O)n(-c2ccc(C(C)(C)C)cc2)c1=O [Compound 1.040] | 5 (5=80-100%)
33 | Cn1nnnc1NC(=O)c1nn(C)c(=O)n(-c2ccc(Cl)c(Cl)c2)c1=O [Compound 1.041] | 5 (5=80-100%)

test system: Ipomoea hederacea (IPOHE); assay: Herbicidal glasshouse test, pre-emergence, IPOHE; assay type: in vivo; conditions: applied at 1000 g/h, evaluated after 13 days

Row | Structure (SMILES) | PRE Application IPOHE, percentage damage (five point scale)
34 | Cn1nnnc1NC(=O)c1nn(C)c(=O)n(-c2ccc(OC(F)(F)F)cc2)c1=O [Compound 1.039] | 5 (5=80-100%)
35 | Cn1nnnc1NC(=O)c1nn(C)c(=O)n(-c2ccc(C(C)(C)C)cc2)c1=O [Compound 1.040] | 3 (3=40-59%)
36 | Cn1nnnc1NC(=O)c1nn(C)c(=O)n(-c2ccc(Cl)c(Cl)c2)c1=O [Compound 1.041] | 5 (5=80-100%)
